Test results: the supplement of paper PMC10307832

Legend:
Assay in all cases: relative viability (nuclei count vs DMSO), 5 days (fraction); higher = more cells survive
Mirin + Alpelisib = compound: N=C1NC(=O)/C(=C/c2ccc(O)cc2)S1 [Mirin] + Cc1nc(NC(=O)N2CCC[C@H]2C(N)=O)sc1-c1ccnc(C(C)(C)C(F)(F)F)c1 [Alpelisib] (partner 2 µM)
How it was run: (§1)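 Values are medians from duplicate plates. Each reflects relative viability, defined as the nuclei count of treated wells over that of vehicle wells. Lung cancer cell lines in 1536-well plates were pin-tool dosed one day after seeding with one drug alone or with a fixed anchor-drug dose plus five library-drug doses (not always all listed) in √10 steps, then fixed, stained and imaged at 4× after 5 days.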

[1] = compound: CCn1c(-c2nonc2N)nc2cnc(Oc3cccc(NC(=O)c4ccc(OCCN5CCOCC5)cc4)c3)cc21 + COc1cc2c(Oc3ccc(NC(=O)C4(C(=O)Nc5ccc(F)cc5)CC4)cc3F)ccnc2cc1OCCCN1CCOCC1 [Foretinib] (partner 0.25 µM)
How it was run: as §1

[2] = compound: CCn1c(-c2nonc2N)nc2cnc(Oc3cccc(NC(=O)c4ccc(OCCN5CCOCC5)cc4)c3)cc21 + CS(=O)(=O)N1CCN(Cc2cc3nc(-c4cccc5[nH]ncc45)nc(N4CCOCC4)c3s2)CC1 [Pictilisib] (partner 1 µM)
How it was run: as §1

[3] = compound: CCC1=CN=CN=C1N2CCN(CC2)CC3=NC4=C(N3)C=C(C=C4)C(F)(F)F + Nc1nc2[nH]cc(CCc3ccc(C(=O)N[C@@H](CCC(=O)O)C(=O)O)cc3)c2c(=O)[nH]1 [Pemetrexed] (partner 0.2 µM)
How it was run: as §1

Cell Line | relative viability (Mirin + Alpelisib; first compound 0.25 µM) | relative viability (Mirin + Alpelisib; first compound 0.7906 µM) | relative viability (Mirin + Alpelisib; first compound 2.5 µM) | relative viability (Mirin + Alpelisib; first compound 7.906 µM) | relative viability (Mirin + Alpelisib; first compound 25 µM) | relative viability ([1]; first compound 0.04 µM) | relative viability ([1]; first compound 0.1265 µM) | relative viability ([1]; first compound 0.4 µM) | relative viability ([1]; first compound 1.265 µM) | relative viability ([1]; first compound 4 µM) | relative viability ([2]; first compound 0.04 µM) | relative viability ([2]; first compound 0.1265 µM) | relative viability ([2]; first compound 0.4 µM) | relative viability ([2]; first compound 1.265 µM) | relative viability ([2]; first compound 4 µM) | relative viability ([3]; first compound 0.04 µM) | relative viability ([3]; first compound 0.1265 µM) | relative viability ([3]; first compound 0.4 µM) | relative viability ([3]; first compound 1.265 µM) | relative viability ([3]; first compound 4 µM)
Calu-6 | 0.922 | 1.07 | 1.02 | 0.831 | 0.769 | 1.03 | 0.832 | 0.84 | 0.568 | 0.507 | 1.06 | 0.808 | 0.797 | 0.54 | 0.403 |  |  |  |  | 
ChaGo-K-1 |  |  |  |  |  | 0.97 | 0.942 | 0.908 | 0.769 | 0.856 | 1.13 | 0.652 | 0.507 |  | 0.425 | 0.253 | 0.261 | 0.275 | 0.258 | 0.262
EBC-1 | 0.952 | 0.984 | 0.862 | 0.587 | 0.553 | 0.0933 | 0.0951 | 0.0949 | 0.0808 | 0.0597 | 0.355 | 0.319 | 0.35 | 0.31 | 0.332 |  |  |  |  | 
EKVX | 0.909 | 0.817 | 0.992 | 0.773 | 0.788 | 0.889 | 0.686 | 0.708 | 0.445 | 0.735 | 0.46 | 0.505 | 0.491 | 0.406 | 0.481 | 0.425 | 0.395 | 0.399 | 0.404 | 0.384
EMC-BAC-2 | 0.771 | 0.838 | 0.756 | 0.698 | 0.685 | 0.988 | 1 | 0.973 | 0.644 | 0.565 | 0.655 | 0.517 | 0.395 | 0.382 | 0.339 | 0.436 | 0.43 | 0.455 | 0.418 | 0.469
EPLC-272H | 0.89 |  | 1.02 | 0.779 | 0.815 | 0.829 | 0.766 | 0.753 | 0.74 | 0.716 | 0.406 | 0.341 | 0.181 | 0.258 | 0.281 | 0.308 | 0.33 | 0.276 | 0.318 | 0.281
H3255 | 0.719 | 0.814 | 0.674 | 0.576 | 0.92 | 1.22 | 0.834 | 0.679 | 0.668 | 0.642 | 0.63 | 0.593 | 0.517 | 0.473 | 0.52 | 0.59 | 0.552 | 0.59 | 0.568 | 0.575
HARA | 0.889 | 0.968 | 0.858 | 0.805 | 0.612 | 1.13 | 1.09 | 0.906 | 0.939 | 0.883 | 0.345 | 0.345 | 0.157 | 0.148 | 0.0855 | 0.276 | 0.242 | 0.227 | 0.226 | 0.222
HCC-15 | 0.851 | 0.859 | 0.928 | 0.798 | 0.593 | 1.13 | 0.951 | 0.998 |  | 0.906 | 0.955 | 0.718 | 0.701 | 0.664 | 0.744 | 0.217 | 0.204 | 0.224 | 0.236 | 0.218
